Assay results taken from PMC7999199, “Novel Cationic Meso-Arylporphyrins and Their Antiviral Activity against HSV-1” (Pharmaceuticals, 2021).

How the values were obtained:
[1] = test system: HSV-1 replication in Vero cells; assay: Influence of the compounds on HSV-1 virus yield during infection of Vero cells (early/late replication stages); assay type: cell-based, herpes simplex virus type 1; conditions: for stages of HSV-1 replication affected: Vero cells, MOI 0.1; for effect on HSV-1 replication: simultaneous addition with the virus
Procedure: Porphyrin’s antiviral action was then determined in terms of their effect on the HSV-1 replication stages in Vero cells. A two-part experiment was conducted to evaluate the influence of the obtained compounds on the early or late stages of replication (Figure 6). First, the effect of porphyrins on the initial stages of reproduction was estimated. Thus, HSV-1 at MOI 0.1 was adsorbed on Vero cells in a medium containing the studied porphyrin; then the cell monolayers were washed from the nonadsorbed virus, and porphyrins of the same concentration were introduced into the plate (1) (Vero Cells + HSV-1 + Porphyrin, left arrow. Figure 6), or the cell monolayers were washed from the nonadsorbed virus, and the medium without the test compound was introduced into the cell monolayers microwell plate (2) (Porphyrin + HSV-1 + Porphyrin medium, right arrow. Figure 6).
The influence of porphyrin antiviral activity on the HSV-1 postadsorption stages was simultaneously evaluated in this experiment. The studied compounds were introduced after HSV-1 adsorption on Vero cells and washing of nonadsorbed virus particles (3) (Vero Cells +HSV-1, left arrow. Figure 6) or, after virus adsorption and nonadsorbed virus particles washing, only the medium was introduced (control of virus reproduction) (4) (Vero Cells +HSV-1, right arrow. Figure 6). After the formation of a pronounced cytopathic effect of the virus in control cultures (48 h of cultivation), the virus infection activity of all the samples was determined by titration in a Vero cell culture (Figure 7).
Four variants were used to test compound efficiency in controlling development of infection in Vero cells. The Vero cells were seeded in 24-well plate in 1 mL of DMEM-5% FCS. (1) The cell monolayers were treated simultaneously with HSV-1 (MOI 0.1) in DMEM-1% FCS (900 µL) and investigated compounds in DMEM-1% FCS (100 µL) for 2 h at 36.8 °C in 5% CO2 atmosphere; then the cell monolayers were washed from the nonadsorbed virus and treated with 900 µL of DMEM-1%FCS and the same concentrations of compounds (100 µL). (2) The cell monolayers were treated simultaneously with HSV-1 (MOI 0.1) DMEM-1% FCS (900 µL) and compounds DMEM-1%FCS (100 µL) for 2 h at 36.8 °C in 5% CO2 atmosphere, and then the cell monolayers were washed from the nonadsorbed virus, after which only DMEM-1% FCS (1 mL) was added. (3) The cell monolayers were treated with HSV-1 (MOI 0.1) DMEM-1% FCS (900 µL) and DMEM-1% FCS (100 µL) for 2 h at 36.8 °C in 5% CO2 atmosphere and washed from the nonadsorbed virus; then DMEM-1% FCS (900 µL) and the same compounds in DMEM-1% FCS (100 µL) were added. (4) Control: the cell monolayers were treated with HSV-1 (MOI 0.1) in DMEM-1% FCS (900 µL), and DMEM-1% FCS (100 µL) was added for 2 h at 36.8 °C in 5% CO2 atmosphere and washed from the nonadsorbed virus, and then DMEM-1% FCS (1 mL) was added. In all variants, the treated cells were then incubated at 36.8 °C in 5% CO2 atmosphere.
After the development of a cytopathic effect in control cultures (HSV-1 + medium, 48 h), the virus content was determined in samples of the culture medium by applying ten-fold dilutions (100 µL) on a monolayers of Vero cells in wells of 96-well plates. After three days, virus titers were counted, and the percentage of inhibition regarding the titer of the virus in the control, which was taken as 100%, was determined. The results were presented as the average of three experiments of four replays.
Figure 7 Inhibitory effect of porphyrins on the HSV-1 replication. The Vero cells were treated with compounds 3a (100 µM) (a), 3b (12 µM and 6 µM) (b) and TMePyP (50 µM, 25 µM and 12.5 µM) (c) simultaneously with HSV-1 (MI 0.1) or after HSV-1 (MI 0.1) adsorption. The results are presented as the percentage of the virus titer with porphyrin relative to its titer in the control (without porphyrin), which was taken as 100%. Each bar represents the mean ± deviation. […]

[2] = n-Octanol/PBS partition coefficient; assay type: physicochemical; conditions: 1-n-octanol/PBS, pH 7; read-out: LogP (LogPow, 1-n-octanol/water partition coefficient)
Procedure: The normalized UV-vis spectra, as well as the fluorescence spectra in DMSO and ethanol, are shown in Figures S1 and S2 (Supplementary Information). Fluorescence quantum yields were measured as compared with 5,10,15,20-tetrakisphenylporphyrin (TPP) (ΦF = 0.11) and ZnTPP (ΦF = 0.033). For free-base compounds 3a,b fluorescence quantum yields were similar at ca. 0.13 in DMSO and ca. 0.14, respectively. Octanol-water distribution coefficients were calculated using 1-n-octanol and phosphate-buffered saline (PBS), according to the method described in [53]. […] As expected, compound 3a was more hydrophilic (LogPow = −4.86) than 3b (LogPow = −4.6). Such an effect can be associated with the increase in the number of methylene spacers in compound 3b.
The distribution coefficient was measured using 1-n-octanol and phosphate buffered saline (PBS), which were presaturated with each other by the described method. […] The absorption of each layer was measured spectrophotometrically in the region of the Soret band. Partition coefficients were calculated as the ratio between absorption in the Soret band of photosensitizers in organic and aqueous phase and the dilution factors for the organic and aqueous layers, according to the aforementioned method.

| SMILES | stages of HSV-1 replication affected [1] | effect on HSV-1 reproduction ([1]; introduced at the stage of virus adsorption, 12 μM) | effect on HSV-1 replication ([1]; 25 μM) | effect on HSV-1 replication ([1]; 50 μM) | logP [2] | effect on HSV-1 reproduction ([1]; compound only at the cell infection stage (3a + HSV-1 + media), 100 µM, MOI 0.1, 48 h) | effect on HSV-1 reproduction ([1]; compound with virus and after washing (3a + HSV-1 + 3a) or post-infection (HSV-1 + 3a), 100 µM, MOI 0.1, 48 h) |
| --- | --- | --- | --- | --- | --- | --- | --- |
| C[n+]1ccc(-c2c3nc(c(-c4cc[n+](C)cc4)c4ccc([nH]4)c(-c4cc[n+](C)cc4)c4nc(c(-c5cc[n+](C)cc5)c5ccc2[nH]5)C=C4)C=C3)cc1 [TMePyP, 5,10,15,20-tetrakis(1-methyl-4-pyridinio)porphyrin tetraiodide, reference compound] | affected both the initial and late stages of virus replication | did not suppress the HSV-1 reproduction | completely suppressed its replication | completely suppressed its replication |  |  |  |
| O=C(CC[n+]1ccccc1)Oc1ccc(-c2c3nc(c(-c4ccc(OC(=O)CC[n+]5ccccc5)cc4)c4ccc([nH]4)c(-c4ccc(OC(=O)CC[n+]5ccccc5)cc4)c4nc(c(-c5ccc(OC(=O)CC[n+]6ccccc6)cc5)c5ccc2[nH]5)C=C4)C=C3)cc1 [3a] | acts on both the initial and postadsorption stages of virus replication |  |  |  | -4.86 | did not significantly suppress the reproduction of the virus | suppressed the reproduction of the virus |
